The values below come from patent US5688640A, “Methods of screening of effectors of endothelin converting enzyme-1” (Board of Regents, The University of Texas System, priority 1994, dated 1997).

What is called inhibition is how much of the control response was suppressed. What is called IC50 is the concentration needed to halve the response being measured. For orientation: Km means the substrate concentration at which the rate is half of its maximum.

Data set [1] has as its target T1, ECE-1 (Bos taurus, UniProt P42891).
T1 construct: The entire coding regions from bovine ECE-1; made in house
T1 sequence (P42891 with tags, fused parts or gaps A87G/A695G limits assumed): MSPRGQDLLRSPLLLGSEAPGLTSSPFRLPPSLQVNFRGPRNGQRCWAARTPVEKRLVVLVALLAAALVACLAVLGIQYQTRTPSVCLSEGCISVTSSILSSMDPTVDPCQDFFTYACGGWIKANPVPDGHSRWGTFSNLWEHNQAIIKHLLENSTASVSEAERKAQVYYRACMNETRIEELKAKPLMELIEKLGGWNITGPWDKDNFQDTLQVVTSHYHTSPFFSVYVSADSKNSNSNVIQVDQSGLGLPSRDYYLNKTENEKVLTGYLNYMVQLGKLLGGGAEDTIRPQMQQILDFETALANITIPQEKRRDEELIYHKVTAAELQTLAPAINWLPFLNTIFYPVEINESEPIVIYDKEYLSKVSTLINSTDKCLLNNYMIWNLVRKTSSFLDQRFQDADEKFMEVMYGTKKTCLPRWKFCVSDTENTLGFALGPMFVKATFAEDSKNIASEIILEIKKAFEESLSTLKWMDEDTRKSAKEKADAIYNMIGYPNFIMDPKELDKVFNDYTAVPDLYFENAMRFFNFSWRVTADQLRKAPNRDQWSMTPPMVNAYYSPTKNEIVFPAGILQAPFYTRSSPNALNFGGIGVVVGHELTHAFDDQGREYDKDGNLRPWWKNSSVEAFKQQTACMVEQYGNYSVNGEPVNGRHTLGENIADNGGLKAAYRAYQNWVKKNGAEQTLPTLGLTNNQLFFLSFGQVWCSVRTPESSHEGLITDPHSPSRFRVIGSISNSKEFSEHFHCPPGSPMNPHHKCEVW
Put plainly: ECE activity in solubilized CHO/ECE-1 membranes/homogenates, protease inhibitors (generation of mature ET-1 from big ET-1 by EIA). In kind it is biochemical, bovine. The settings on record: for inhibition of ECE activity (in words): CHO/ECE-1 membranes.
Procedure: Solubilized membranes were prepared from this homogenate as described under Purification of ECE, except that buffer B was used instead of buffer A. For protease inhibitor studies, membranes were prepared by using buffer B without pepstain A, PMSF and pCMS.

The target of data set [2] is T2, ECE (Bos taurus, UniProt Q28010).
T2 construct: full length 758 aa
T2 sequence (Q28010 1-758): T1 sequence (P42891 with tags, fused parts or gaps A87G/A695G limits assumed)
Put plainly: ECE activity in bovine adrenal cortex membrane fractions. In kind it is biochemical.
Procedure: Bovine adrenal glands were obtained at a local slaughter house, immediately immersed in ice-cold Dulbecco's phosphate buffered saline (PBS), and brought to the laboratory within 2 hours. All subsequent procedures were performed at 4° C. Adrenal cortices were carefully separated from the medulla and connective tissue. […] The homogenate was centrifuged at 1,000×g for 10 min, and the resulting supernatant was further centrifuged at 100,000×g for 60 min. The pellet was resuspended in 5×volume of buffer A by a Teflon homogenizer, and centrifuged again at 100,000×g for 60 min. The crude membrane pellet was solubilized at 10-20 mg protein/ml in buffer A containing 2.5% C12 E10 for 30 min. The mixture was centrifuged at 100,000×g for 60 min, and the supernatant was saved as solubilized membrane.

For another data set, the target named is T3, human ETA receptor (Homo sapiens, UniProt P25101).
T3 sequence (P25101 21-427): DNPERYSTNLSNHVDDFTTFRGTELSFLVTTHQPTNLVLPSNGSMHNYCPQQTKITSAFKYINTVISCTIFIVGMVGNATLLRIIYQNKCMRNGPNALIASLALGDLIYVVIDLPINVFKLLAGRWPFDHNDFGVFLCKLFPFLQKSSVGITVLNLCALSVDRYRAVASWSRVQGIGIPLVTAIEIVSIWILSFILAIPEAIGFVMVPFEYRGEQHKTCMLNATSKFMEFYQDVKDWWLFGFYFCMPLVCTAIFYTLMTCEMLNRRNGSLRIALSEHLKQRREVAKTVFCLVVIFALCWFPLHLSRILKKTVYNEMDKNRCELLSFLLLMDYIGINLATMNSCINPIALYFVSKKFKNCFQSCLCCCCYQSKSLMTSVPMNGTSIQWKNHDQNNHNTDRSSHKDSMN
Put plainly: Ca2+ transient bioassay in CHO cells expressing human ETA receptors. Format: cell-based.

A further data set concerns CHO/ECE-1 cells. The data set is described as follows: Concentration of intact compound in culture medium by HPLC before and after culture with CHO/ECE-1 cells.
The target of data set [3] is T1, ECE-1. The data set is described as follows: Production of mature ET-1 by 1:1 co-cultures of CHO/ECE-1 and CHO/preproET-1 cells (conversion of exogenous big ET-1). Format: cell-based, bovine.
Procedure: (§1) Transient transfection of the preproET-1 cDNA was performed by the DEAE-dextran method as described (Sakurai et al., 1990). Twelve hours after transfection, cells were refed with fresh medium with or without ECE inhibitors. The medium was conditioned for an additional 12 hours and directly subjected to EIA for mature and big ET-1 (Suzuki et al., 1990; Suzuki et al., 1989). For the Ca^2+ transient bioassay (see below), Phenol Red-free CHO-SFM medium (Gibco/BRL) without serum was used in order to avoid artefacts induced by serum and the dye.
Next, the ability of CHO/ECE-1 cells to convert exogenously supplied big ET-1 was examined by co-culturing the cells with a separate CHO cell line that was stably transfected with the preproET-1 construct (CHO/preproET-1 cells).
Data set [4] addresses T1, ECE-1. Put plainly: Secretion of big and mature ET-1 by preproET-1-transfected CHO/ECE-1 cells (conversion of endogenous big ET-1). In kind it is cell-based, bovine.
Procedure: as §1
To examine whether the expressed ECE-1 can convert big ET-1 in intact cells, paired cultures of CHO/ECE-1 cells and untransfected CHO cells were transiently transfected with the preproET-1 construct. After the transient transfection, the amounts of mature and big ET-1 secreted into the medium were measured by EIA. […] The functional authenticity of the immunoreactive mature peptide produced from the double-transfected cells was examined with a bioassay system that uses another line of CHO cells expressing human ETA receptors as reporter cells. […] The cells were loaded with the Ca^2+ indicator Fura-2/AM, and directly challenged with serum-free, Phenol Red-free culture supernatants from the aforementioned double-transfection protocols. […] Next the supernatants from the preproET-1-transfected CHO/ECE-1 cells were added, so that the final concentration of ET-1 as measured by EIA was ≈20 pM.
Data set [5] concerns cultured endothelial cells. To be noted: cited from earlier work.
The next data set relates to endothelial ECE. To be noted: cited from earlier work; for inhibition of endothelial ECE activity (in words): membranes and purified preparations.
Data set [6] has as its system ECE. To be noted: cited from earlier work.
The conditions of data set [7]: ET-1(1-20) and ET-1(1-22) relative to authentic ET-1(1-21); cited from earlier work.
The target in data set [8] is T1, ECE-1. The data set is described as follows: Substrate conversion / isopeptide selectivity of cloned ECE-1 (CHO/ECE-1 membranes or homogenate, EIA). In kind it is biochemical, bovine. To be noted: in vitro; big endothelin isopeptides 0.1 μM. The method, then: FIG. 2A. Functional expression of ECE-1 cDNA in transfected CHO cells.
FIG. 2E. Isopeptide selectivity of ECE-1 expressed in solubilized CHO/ECE-1 membranes. Designated synthetic big endothelin isopeptides (0.1 μM) were used as substrates and generation of corresponding mature peptides were measured by EIA.
Reaction mixtures for ECE assay (50 μl) contained 0.1M sodium phosphate buffer (pH 6.8), 0.5M NaCl, 0.1 μM human big ET-1(1-38) and enzyme fraction. For some studies, the reactions were preincubated at 37° C. with various protease inhibitors for 15 minutes prior to the addition of big ET-1. The reactions were incubated at 37° C. for 30 min in siliconized 0.5-ml microcentrifuge tubes. […] Duplicate assay wells were used for each enzyme reaction. Protein concentration was determined by the Bradford method (Bio-Rad) using IgG as standard.

Data set [9] has as its target T1, ECE-1. The data set is described as follows: HPLC analysis of big ET-1 conversion by partially purified ECE-1 from CHO/ECE-1 cells. In kind it is biochemical, bovine. To be noted: 5 μM big ET-1, 24 hr. On the procedure:
FIG. 3. HPLC analysis of big ET-1 conversion by partially purified ECE-1 from CHO/ECE-1 cells. ECE-1 was partially purified from solubilized CHO/ECE-1 membranes by WGA-agarose chromatography as described in Example 1. The enzyme fraction (800 μg protein) was incubated at 37° C. with 1 μM big ET-1 in 800 μl of ECE assay buffer. […] The reaction mixture was separated by HPLC as described in Example 1. Arrows indicate elution times of the authentic peptides.
Samples were injected into a C18 reverse-phase HPLC column (Ultrasphere ODS 5 μm, 4.6×250 mm; Beckman), which was eqhilibrated with 18% (v/v) acetonitrile/0.1% (v/v) TFA and maintained at 40° C. The column was eluted at a flow rate of 1 ml/min with an 18-30% linear gradient of acetonitrile in 0.1% TFA over 12 minutes followed by a 30-36% linear gradient over an additional 12 minutes. Peptides were detected by UV absorbance at 210 nm. […] To confirm chemical authenticity of immunoreactivity in culture supernatants, the conditioned medium was pre-extracted with a Sep-Pak C18 cartridge as described (Suzuki et al., 1989) before HPLC. HPLC fractions (0.5 ml) were collected and evaporated to dryness under vacuum. […] No other immunoreactive peaks were detected. […]

“Also recorded” adds a separate entry of the source. Ends that are not written are not given here.

Procedure for human ETA receptor: Bioassay of culture supernatants from preproET-1-transfected CHO/ECE-1 cells using CHO cells expressing human ETA receptors as reporter cells. Sup-A and Sup-B represents the serum-free medium conditioned for 12 hours with CHO/ECE-1 and CHO cells each transiently transfected with the preproET-1 construct, respectively.
For the Ca^2+ transient bioassay (see below), Phenol Red-free CHO-SFM medium (Gibco/BRL) without serum was used in order to avoid artefacts induced by serum and the dye.
A CHO stable transfectant clone expressing human ETA receptors was loaded with fura-2/AM, and ET-1 induced intracellular calcium transients were monitored by a Jasco CAM-110 Intracellular Ion Analyzer as previously described (Sakamoto et al., 1993).
The functional authenticity of the immunoreactive mature peptide produced from the double-transfected cells was examined with a bioassay system that uses another line of CHO cells expressing human ETA receptors as reporter cells. A stable transfectant cell line was obtained by transfecting CHO cells with a human ETA receptor construct (Sakamoto et al., 1993). […] Next the supernatants from the preproET-1-transfected CHO/ECE-1 cells were added, so that the final concentration of ET-1 as measured by EIA was ≈20 pM.

For the compound `c1cnc2c(c1)ccc1cccnc12` [1,10-phenanthroline], the “inhibition of ECE activity (in words)” value against ECE-1 [1] (in vitro) was “inhibited”.
Still for that read-out and setting: the result for `C[C@H](CS)C(=O)N1CCC[C@H]1C(=O)O` [Captopril] reads “not inhibited; also recorded: not by thiorphan or captopril”.
In the case of `O=C(O)CN(CCN(CC(=O)O)CC(=O)O)CC(=O)O` [EDTA], the inhibition at 1000 µM on ECE [2] (read-out: inhibition of ECE activity) was greater than 90%.
On to `CC(C)C[C@H](NC(=O)N1CCCCCC1)C(=O)N[C@H](Cc1cn(C)c2ccccc12)C(=O)N[C@H](Cc1ccccn1)C(=O)O` [FR139317], for which, on human ETA receptor (supernatant with ≈20 pM ET-1), the “inhibition of Ca2+ response to CHO/ECE-1 supernatant (in words)” value is “completely abolished”.
Turning to `COc1c2c(c(O)c3c1C(O)Cc1cc(CC(C)O)c(C(=O)O)c(O)c1-3)C(=O)c1cccc(O)c1C2=O` (stereo not drawn) [FR901533, 1,6,9,14-tetrahydroxy-3-(2-hydroxypropyl)-7-methoxy-8,13-dioxo-5,6,8,13-tetrahydro-benzo[a]naphthacene-2-carboxylate Na], the “inhibition of ECE activity (in words)” value on ECE-1 [1] (in vitro) is given as “efficiently inhibited”. The IC50 on ECE-1 [1] (in vitro, solubilized CHO/ECE-1 membranes, read-out: apparent IC50 for inhibition of ECE activity) is roughly 1500 nM; against ECE-1 [3], roughly 1000 nM. In the data set with CHO/ECE-1 cells (100 μM nominal, after 72-hr culture with CHO/ECE-1 cells), the “measured concentration in medium after culture” value turned out to be 94 µM. In addition, in the data set on CHO/ECE-1 cells (100 μM nominal, before 72-hr culture with CHO/ECE-1 cells), the “measured concentration in medium before culture” value worked out at 93 µM. For the same compound, the “degradation by the cells (in words)” value with CHO/ECE-1 cells (72-hr culture with CHO/ECE-1 cells) is on record as “not degraded”. Also, the “inhibition of conversion of exogenous big ET-1 (in words)” value against ECE-1 [3] (added to medium at low μM concentrations) is listed as “efficiently inhibited”. For the same compound, the “inhibition of production/secretion of mature ET-1 by live double-transfected cells (in words)” value at ECE-1 [4] (inhibitor added to medium) was “did not inhibit”.
As for `CC(C)C[C@H](NP(=O)(O)O[C@@H]1O[C@@H](C)[C@H](O)[C@@H](O)[C@H]1O)C(=O)N[C@@H](Cc1c[nH]c2ccccc12)C(=O)O` [Phosphoramidon], in data set [5] (added to the medium), the “effect on production of mature ET-1 (in words)” value is on record as “decreases the production of mature ET-1 in a dose dependent manner”. The “inhibition of endothelial ECE activity (in words)” value in the data set on endothelial ECE was “low μM range”. For the same compound, the inhibition at 100 µM against ECE [2] (100 μM, bovine adrenal cortex membranes) was greater than 90%. The “inhibition of conversion of exogenous big ET-1 (in words)” value in the data set on ECE [6] (whole animals and isolated perfused organs, most assay systems) is given as “consistently inhibits the conversion”.
`O=C(O)CNC(=O)C(CS)Cc1ccccc1` (stereo not drawn) [Thiorphan]: the “inhibition of endothelial ECE activity (in words)” value with endothelial ECE is reported as “not by thiorphan”. Also, the “inhibition of ECE activity (in words)” value on ECE-1 [1] (in vitro) is given as “not inhibited; also recorded: not by thiorphan or captopril”.
`O=S(=O)(O)c1cc[c]([Hg][Cl])cc1` [pCMS, p-chloro-mercuriphenylsulphonic acid]: the “ECE activity (% of ECE activity without inhibitors)” value at ECE-1 [1] (inhibitor 100 μM, means of duplicate assays from two independent experiments) is reported as 298%.
For the compound “ET-1(1-20): ET-1(1-20) (CSCSSLMDKECVYFCHLDII; ends and bridges not checked; cysteine pairing not given here; UniProt P05305 53-72, looked up, fragment)”, in data set [7], the “vasoconstrictor/biological activity (in words)” value is “at least three orders of magnitude weaker”.
For the compound “ET-1(1-22): ET-1(1-22) (CSCSSLMDKECVYFCHLDIIWV; ends and bridges not checked; cysteine pairing not given here; UniProt P05305 53-74, looked up, fragment)”, in data set [7], the “vasoconstrictor/biological activity (in words)” value was “at least three orders of magnitude weaker”.
Take “big ET-1(1-31): C-terminally truncated substrate (CSCSSLMDKECVYFCHLDIIWVNTPEHVVPY; ends and bridges not checked; cysteine pairing not given here; UniProt P05305 53-83, looked up, fragment)”: the “processing as ECE-1 substrate (in words)” value with ECE-1 [8] is “did not generate detectable levels of mature peptide; also recorded: cannot be an ECE-1 substrate”.
With “big ET-1: human big ET-1(1-38) obtained from American Peptides (CSCSSLMDKECVYFCHLDIIWVNTPEHVVPYGLGSPRS; ends and bridges not checked; cysteine pairing not given here; UniProt P05305 53-90, looked up)”, the “conversion of endogenously produced big ET-1” value in [5] (cultured endothelial cells) was 60-80%. Besides, in the data set with endothelial ECE (crude membranes and purified enzyme preparations, read-out: apparent Km of endothelial ECE), the Km was 1 to 10 µM. In addition, in the data set with ECE-1 [8], the “processing as ECE-1 substrate (in words)” value was “more efficiently than big ET-2 and big ET-3”. Moreover, in the data set with ECE-1 [9], the “conversion of big ET-1 into two peptide products” value was greater than 90% and the “product yield judged by areas under HPLC peaks” value was greater than 80%. Also, in the data set with ECE-1 [3] (co-culture with CHO/ECE-1 cells), the “conversion of exogenous big ET-1” value is 5-10%. Further, in the data set with ECE [6] (isolated perfused tissues and whole animal preparations), the “phosphoramidon-sensitive conversion of exogenously administered big ET-1 (in words)” value is listed as “only up to a few %”. Moreover, the “conversion of endogenous big ET-1 (intracellular)” value with ECE-1 [4] (CHO/ECE-1 cells, depending on experimental conditions) was 50-90%. Also, the “concentration secreted in culture supernatant” value with ECE-1 [4] (preproET-1-transfected CHO/ECE-1 cells) worked out at 46 pM. For the same compound, in the data set with ECE-1 [4] (preproET-1-transfected CHO/ECE-1 cells, no inhibitor), the “conversion of endogenous big ET-1 to mature peptide, typical culture” value was 84%. Also, in the data set with human ETA receptor (20 pM mature ET-1 (final), 1,000-fold higher concentration of big ET-1, supernatant at ≈20 pM ET-1), the “intracellular Ca2+ response of ETA reporter cells (in words)” value was “did not respond”.
